Experimental data published in PubChem BioAssay AID1053149 (Broad Institute, 2014).

Columns and labels:
[1] = test system: HepG2 secreted PCSK9, ELISA, 24 h; assay: PCSK9 secretion decrease in hepatoma cells – cell-based, HepG2, ELISA, plate reader, cherry-pick, orthogonal assay for Trib1 inducer project, dose response (AID 1053149)
[2] = as above; conditions: HepG2 secreted PCSK9, ELISA, 24 h; measured here: maximal PCSK9 decrease; stronger effect = higher value

SMILES | AC50 [1] [µM] | decrease in PCSK9 [2] [%]
CN1C(=O)c2cc(NC(=O)c3ccc(C(F)(F)F)cc3)ccc2OC[C@@H]2O[C@@H](CC(=O)NC3Cc4ccccc4C3)CC[C@@H]21 | 6.6 | 80
CN1C(=O)c2cc(NC(=O)c3ccc(C(F)(F)F)cc3)ccc2OC[C@@H]2O[C@H](CC(=O)NC3Cc4ccccc4C3)CC[C@@H]21 | 0.6 | 79
